Legend:
Assay type in all cases: in vivo
[1] = tested on: kochia (Bassia scoparia); test: Test A1 preemergence, kochia
In short: (§1)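 Seeds were first planted into a blend of loam soil and sand and given a preemergence directed soil spray. In parallel, pots of the same soil were sown for postemergence application once plants reached 2 to 10 cm and the one- to two-leaf stage. Both used surfactant-containing non-phytotoxic solvent formulations.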

[2] = tested on: Oat, Wild (wild oat, Avena fatua); test: Test A1 preemergence, Oat, Wild
In short: as §1

[3] = tested on: Pigweed, Palmer (palmer amaranth, palmer pigweed, Amaranthus palmeri); test: Test A1 preemergence, Pigweed, Palmer
In short: as §1

[4] = tested on: soybean (Glycine max); test: Test A1 preemergence, soybean
In short: as §1

[5] = tested on: wheat (Triticum aestivum); test: Test A1 preemergence, wheat
In short: as §1

[6] = tested on: Oat, Wild (wild oat, Avena fatua); test: Test A1 postemergence, Oat, Wild; details: Postemergence
In short: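 Plants grown in pots of loam/sand mix; preemergence = soil-directed spray on seeded pots, postemergence = spray at 1–2 leaves, height 2–10 cm; test chemicals formulated in non-phytotoxic solvent with surfactant.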

[7] = tested on: Ryegrass, Italian (Italian ryegrass, Lolium multiflorum); test: Test A1 postemergence, Ryegrass, Italian; details: Postemergence
In short: (§2)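 Herbicidal response was scored on plants treated either preemergence, by directed spray onto soil of a loam–sand blend after sowing, or postemergence on potted plants at the one- to two-leaf stage, 2–10 cm high. Test chemicals were carried in a non-phytotoxic solvent mix with surfactant.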

[8] = tested on: horseweed (Erigeron canadensis); test: Test A1 postemergence, horseweed; details: Postemergence
In short: as §2

[9] = tested on: barnyardgrass (Echinochloa crus-galli); test: Test B1 flooded paddy test, barnyardgrass; details: 250 g ai/ha, Flood, applied to paddy water, 2-leaf stage, visually evaluated after 10 to 14 days
Text: (§3) A dash (-) response means no test result.

[10] = tested on: ducksalad (Heteranthera limosa); test: Test B1 flooded paddy test, ducksalad; details: 250 g ai/ha, Flood, applied to paddy water, 2-leaf stage, visually evaluated after 10 to 14 days
Text: as §3

[11] = 31 g ai/ha, 0 to 100 scale (0 no effect, 100 complete control)
[12] = 125 g ai/ha, 0 to 100 scale, 0 no effect, 100 complete control
[13] = 31 g ai/ha, 0 to 100 scale (0 no effect, 100 complete control), 10 days

## Cc1cc(C)c(N(COC(=O)C(C)(C)C)S(=O)(=O)C(F)(F)F)cc1C1=NOC2CCCCCC12 (single isomer, unassigned) [Compound 294]
[1]; [11]
  Plant response rating, Kochia: 0
[1]; [12]
  Plant response rating, Kochia: 60
[2]; [11]
  Plant response rating, Oat, Wild: 0
[2]; [12]
  Plant response rating, Oat, Wild: 20
[3]; [11]
  Plant response rating, Pigweed, Palmer: 10
[3]; [12]
  Plant response rating, Pigweed, Palmer: 30
[4]; [11]
  Plant response rating, Soybean: 0
[4]; [12]
  Plant response rating, Soybean: 0
[5]; [11]
  Plant response rating, Wheat: 0
[5]; [12]
  Plant response rating, Wheat: 0
[6]; [13]
  Plant response rating, Oat, Wild: 10
[6]; 125 g ai/ha, 0 to 100 scale
  Plant response rating, Oat, Wild: 20
[7]; [13]
  Plant response rating, Ryegrass, Italian: 0
[7]; 125 g ai/ha, 0 to 100 scale
  Plant response rating, Ryegrass, Italian: 40
[8]; [13]
  Plant response rating, Horseweed: 10
[8]; 125 g ai/ha, 0 to 100 scale
  Plant response rating, Horseweed: 90
[9]
  Plant response rating, Barnyardgrass (0 to 100 scale, 0 is no effect, 100 is complete control): 95
[10]
  Plant response rating, Ducksalad (0 to 100 scale, 0 is no effect, 100 is complete control): 70

## Cc1c(NS(=O)(=O)C(F)(F)F)cc(C2=NOC3CCCC23)c(C)c1C (stereo not drawn) [Compound 335]
[1]; [11]
  Plant response rating, Kochia: 20
[1]; [12]
  Plant response rating, Kochia: 60
[2]; [11]
  Plant response rating, Oat, Wild: 0
[2]; [12]
  Plant response rating, Oat, Wild: 30
[3]; [11]
  Plant response rating, Pigweed, Palmer: 100
[3]; [12]
  Plant response rating, Pigweed, Palmer: 100
[4]; [11]
  Plant response rating, Soybean: 30
[4]; [12]
  Plant response rating, Soybean: 40
[5]; [11]
  Plant response rating, Wheat: 0
[5]; [12]
  Plant response rating, Wheat: 0
[6]; [13]
  Plant response rating, Oat, Wild: 0
[6]; 125 g ai/ha, 0 to 100 scale
  Plant response rating, Oat, Wild: 0
[7]; [13]
  Plant response rating, Ryegrass, Italian: 0
[7]; 125 g ai/ha, 0 to 100 scale
  Plant response rating, Ryegrass, Italian: 30
[8]; [13]
  Plant response rating, Horseweed: 40
[8]; 125 g ai/ha, 0 to 100 scale
  Plant response rating, Horseweed: 70
[9]
  Plant response rating, Barnyardgrass (0 to 100 scale, 0 is no effect, 100 is complete control): 95
[10]
  Plant response rating, Ducksalad (0 to 100 scale, 0 is no effect, 100 is complete control): 70

## Cc1c(C(=O)N2CCC(F)(F)CC2)cc(N(COC(=O)C(C)(C)C)S(=O)(=O)C(F)(F)F)c(C)c1C [Compound 360]
[1]; [11]
  Plant response rating, Kochia: 0
[1]; [12]
  Plant response rating, Kochia: 30
[2]; [11]
  Plant response rating, Oat, Wild: 0
[2]; [12]
  Plant response rating, Oat, Wild: 0
[3]; [11]
  Plant response rating, Pigweed, Palmer: 0
[3]; [12]
  Plant response rating, Pigweed, Palmer: 40
[4]; [11]
  Plant response rating, Soybean: 0
[4]; [12]
  Plant response rating, Soybean: 0
[5]; [11]
  Plant response rating, Wheat: 0
[5]; [12]
  Plant response rating, Wheat: 10
[6]; [13]
  Plant response rating, Oat, Wild: 0
[6]; 125 g ai/ha, 0 to 100 scale
  Plant response rating, Oat, Wild: 0
[7]; [13]
  Plant response rating, Ryegrass, Italian: 0
[7]; 125 g ai/ha, 0 to 100 scale
  Plant response rating, Ryegrass, Italian: 0
[8]; [13]
  Plant response rating, Horseweed: 10
[8]; 125 g ai/ha, 0 to 100 scale
  Plant response rating, Horseweed: 70
[9]
  Plant response rating, Barnyardgrass (0 to 100 scale, 0 is no effect, 100 is complete control): 95
[10]
  Plant response rating, Ducksalad (0 to 100 scale, 0 is no effect, 100 is complete control): 65

## COC(=O)OCN(c1cc(C2=NOC3CCCC23)c(C)cc1C)S(=O)(=O)C(F)(F)F (stereo not drawn) [Compound 315]
[1]; [11]
  Plant response rating, Kochia: 0
[1]; [12]
  Plant response rating, Kochia: 60
[2]; [11]
  Plant response rating, Oat, Wild: 0
[2]; [12]
  Plant response rating, Oat, Wild: 20
[3]; [11]
  Plant response rating, Pigweed, Palmer: 100
[3]; [12]
  Plant response rating, Pigweed, Palmer: 90
[4]; [11]
  Plant response rating, Soybean: 40
[4]; [12]
  Plant response rating, Soybean: 50
[5]; [11]
  Plant response rating, Wheat: 20
[5]; [12]
  Plant response rating, Wheat: 70
[6]; [13]
  Plant response rating, Oat, Wild: 0
[6]; 125 g ai/ha, 0 to 100 scale
  Plant response rating, Oat, Wild: 20
[7]; [13]
  Plant response rating, Ryegrass, Italian: 10
[7]; 125 g ai/ha, 0 to 100 scale
  Plant response rating, Ryegrass, Italian: 70
[8]; [13]
  Plant response rating, Horseweed: 20
[8]; 125 g ai/ha, 0 to 100 scale
  Plant response rating, Horseweed: 60
[9]
  Plant response rating, Barnyardgrass (0 to 100 scale, 0 is no effect, 100 is complete control): 98
[10]
  Plant response rating, Ducksalad (0 to 100 scale, 0 is no effect, 100 is complete control): 90

## CCOC(=O)N(c1cc(C(=O)N2CCCCC2)c(C)c(C)c1C)S(=O)(=O)C(F)(F)F [Compound 330, Ethyl N-[(trifluoromethyl)sulfonyl]-N-[2,3,4-trimethyl-5-(1-piperidinylcarbonyl)phenyl]carbamate]
[1]; [11]
  Plant response rating, Kochia: 10
[1]; [12]
  Plant response rating, Kochia: 40
[2]; [11]
  Plant response rating, Oat, Wild: 0
[2]; [12]
  Plant response rating, Oat, Wild: 20
[3]; [11]
  Plant response rating, Pigweed, Palmer: 70
[3]; [12]
  Plant response rating, Pigweed, Palmer: 80
[4]; [11]
  Plant response rating, Soybean: 0
[4]; [12]
  Plant response rating, Soybean: 30
[5]; [11]
  Plant response rating, Wheat: 0
[5]; [12]
  Plant response rating, Wheat: 30
[6]; [13]
  Plant response rating, Oat, Wild: 0
[6]; 125 g ai/ha, 0 to 100 scale
  Plant response rating, Oat, Wild: 10
[7]; [13]
  Plant response rating, Ryegrass, Italian: 0
[7]; 125 g ai/ha, 0 to 100 scale
  Plant response rating, Ryegrass, Italian: 0
[8]; [13]
  Plant response rating, Horseweed: 80
[8]; 125 g ai/ha, 0 to 100 scale
  Plant response rating, Horseweed: 90
[9]
  Plant response rating, Barnyardgrass (0 to 100 scale, 0 is no effect, 100 is complete control): 95
[10]
  Plant response rating, Ducksalad (0 to 100 scale, 0 is no effect, 100 is complete control): 95

## Cc1c(C(=O)N2CCOCC2)cc(NS(=O)(=O)C(F)(F)F)c(Cl)c1F [Compound 321]
[1]; [11]
  Plant response rating, Kochia: 80
[1]; [12]
  Plant response rating, Kochia: 90
[2]; [11]
  Plant response rating, Oat, Wild: 0
[2]; [12]
  Plant response rating, Oat, Wild: 50
[3]; [11]
  Plant response rating, Pigweed, Palmer: 90
[3]; [12]
  Plant response rating, Pigweed, Palmer: 100
[4]; [11]
  Plant response rating, Soybean: 60
[4]; [12]
  Plant response rating, Soybean: 60
[5]; [11]
  Plant response rating, Wheat: 0
[5]; [12]
  Plant response rating, Wheat: 80
[6]; [13]
  Plant response rating, Oat, Wild: 0
[6]; 125 g ai/ha, 0 to 100 scale
  Plant response rating, Oat, Wild: 10
[7]; [13]
  Plant response rating, Ryegrass, Italian: 30
[7]; 125 g ai/ha, 0 to 100 scale
  Plant response rating, Ryegrass, Italian: 40
[8]; [13]
  Plant response rating, Horseweed: 70
[8]; 125 g ai/ha, 0 to 100 scale
  Plant response rating, Horseweed: 80
[9]
  Plant response rating, Barnyardgrass (0 to 100 scale, 0 is no effect, 100 is complete control): 15
[10]
  Plant response rating, Ducksalad (0 to 100 scale, 0 is no effect, 100 is complete control): 95
